Test results as given in US20110280862A1, “GEP AND DRUG TRANSPORTER REGULATION, CANCER THERAPY AND PROGNOSIS” (THE UNIVERSITY OF HONG KONG, priority 2010, published 2011).
Converted amounts (≈) assume the structure as drawn. Where two headings read alike, the source gives them in different places.

Assays:
Assay type in all cases: cell-based, Human
Hep3B cells [1] = assay: MTT assay, drug IC50, parental cells
Method: (§1) Human liver cancer cell lines, Hep3B and HepG2, were purchased from American Type Culture Collection (Manassas, Va.). Culture method has been previously described, for example by Ho J C, et al. Hepatology 2008; 47: 1524-1532 and Cheung S T, et al. Clin Cancer Res 2004; 10: 7629-7636. Stable transfectants for GEP overexpression and suppression have also been described. For chemoresistant populations, the Hep3B cells were plated out and selected under various chemotherapeutic agents of various concentrations at 10-fold dilution for 30 days. The highest dose that still had viable cells over the extended selection period was used and the cells expanded for further selection. The one-step selected cells were then plated out again and selected under escalating doses of the respective drug in a 2-fold manner for another 30 days. The two-step selection process could select a population of cells more resistant to chemotherapeutic agents. The cells selected for resistance to doxorubicin were referred to as doxorubicin resistant cells. […] The drug IC50 value was determined by MTT assay. […] Apoptosis was determined by Annexin V-FITC (AV-FLI) and propidium iodide (PI-FL2) staining using flow cytometry. […] For doxorubicin uptake assays, cells were incubated with or without doxorubicin for 24 hours, and doxorubicin content (FL2) was analyzed by flow cytometry. […]

[2] = system: cisplatin resistant cells; assay: MTT assay, drug IC50, cisplatin resistant cells
Method: as §1

[3] = system: doxorubicin resistant cells; assay: MTT assay, drug IC50, doxorubicin resistant cells
Method: as §1

[4] = system: doxorubicin resistant cells; assay: Apoptosis assay, Annexin V/PI flow cytometry; conditions: doxorubicin 0.5 μg/ml, 24 hours, control or with ABCB5 suppression by siRNA
Method: (§2) Human liver cancer cell lines, Hep3B and HepG2, were purchased from American Type Culture Collection (Manassas, Va.). Culture method has been previously described, for example by Ho J C, et al. Hepatology 2008; 47: 1524-1532 and Cheung S T, et al. Clin Cancer Res 2004; 10: 7629-7636. Stable transfectants for GEP overexpression and suppression have also been described. For chemoresistant populations, the Hep3B cells were plated out and selected under various chemotherapeutic agents of various concentrations at 10-fold dilution for 30 days. The highest dose that still had viable cells over the extended selection period was used and the cells expanded for further selection. The one-step selected cells were then plated out again and selected under escalating doses of the respective drug in a 2-fold manner for another 30 days. The two-step selection process could select a population of cells more resistant to chemotherapeutic agents. The cells selected for resistance to doxorubicin were referred to as doxorubicin resistant cells. Similarly, the cells selected under cisplatin were referred to as cisplatin resistant cells. The drug IC50 value was determined by MTT assay. For apoptosis assays, cells were incubated with or without chemotherapeutic agents for 24 to 48 hours. Apoptosis was determined by Annexin V-FITC (AV-FLI) and propidium iodide (PI-FL2) staining using flow cytometry. The total apoptotic population included the early apoptotic cells (high MFI of AV but low PI) plus the late apoptotic cells (high MFI of both AV and PI) of the scatter plot. […] For doxorubicin uptake assays, cells were incubated with or without doxorubicin for 24 hours, and doxorubicin content (FL2) was analyzed by flow cytometry. Pilot studies had examined treatment time-points 0, 1, 3, 6 and 24 hours, and the latter three time-points had similar data profiles. […] There was a time-dependent effect, and thus the data charts presented the data of the 24-hour treatment in comparison with the baseline data. […]

Hep3B cells [5] = assay: Apoptosis assay, Annexin V/PI flow cytometry; conditions: doxorubicin 0.5 μg/ml, 24 hours, control or with ABCB5 suppression by siRNA
Method: as §2

[6] = system: GEP overexpression transfectants; assay: Apoptosis assay, Annexin V/PI flow cytometry; conditions: doxorubicin 0.5 μg/ml, 24 hours, control or with ABCB5 suppression by siRNA
Method: as §2

[7] = system: doxorubicin resistant cells; assay: Doxorubicin uptake assay by flow cytometry; conditions: doxorubicin 0.5 μg/ml, 24 hours, control or with ABCB5 suppression by siRNA
Method: as §2

Hep3B cells [8] = assay: Doxorubicin uptake assay by flow cytometry; conditions: doxorubicin 0.5 μg/ml, 24 hours, control or with ABCB5 suppression by siRNA
Method: as §2

[9] = system: GEP overexpression transfectants; assay: Doxorubicin uptake assay by flow cytometry; conditions: doxorubicin 0.5 μg/ml, 24 hours, control or with ABCB5 suppression by siRNA
Method: as §2

Compound	IC50 (Hep3B cells [1]) [µg/mL]	increase in resistance compared to parental cells ([2]; cisplatin resistant cells vs parental cells)	IC50 ([2]; cisplatin resistant cells, MTT assay) [µg/mL]	IC50 (Hep3B cells [1]; Homo sapiens, Hep3B, read-out: IC50) [µg/mL]	IC50 ([3]; Homo sapiens, doxorubicin resistant cells, MTT assay) [µg/mL]	increase in resistance compared to parental cells ([3]; doxorubicin resistant cells vs parental cells)	net increase in apoptotic populations [4] [%]	net increase in apoptotic populations (Hep3B cells [5]) [%]	net increase in apoptotic populations [6] [%]	population with doxorubicin uptake [7] [%]	population with doxorubicin uptake (Hep3B cells [8]) [%]	population with doxorubicin uptake [9] [%]
N.N.[Cl][Pt][Cl] [cisplatin]	0.84	more than 10 folds	8.53									
COc1cccc2c1C(=O)c1c(O)c3c(c(O)c1C2=O)C[C@@](O)(C(=O)CO)C[C@@H]3O[C@H]1C[C@H](N)[C@H](O)[C@H](C)O1 [doxorubicin]				0.11 (≈ 0.202 µM)	1.78 (≈ 3.27 µM)	more than 16 folds	7.7	12.5	11.3	31.1	76.4	55.4
